The text below walks through data of ChEMBL document CHEMBL2177019, “Carbamate derivatives of indolines as cholinesterase inhibitors and antioxidants for the treatment of Alzheimer's disease” (J Med Chem, 2012).

Series [1] deals with H9c2. Put plainly: Prevention of apoptosis in rat H9c2 cells assessed as protection against oxidative stress-induced cytotoxicity at 100 nM […] by Alamar blue assay. Format: functional.
A short description of series [2]: Cytotoxicity against rat H9c2 cells assessed as cell viability in absence of H2O2. Format: cell-based. On the set-up: concentration or dose not given beside the values. The following applies: read-out: Activity.
The nature of series [3]: Antioxidant activity assessed as scavenging of glucose oxidase-generated H2O2 and hydroxyl radicals by chemiluminescence assay. Format: functional.
The nature of series [4]: Selectivity ratio of IC50 for equine BuChE to IC50 for bovine AChE.
The target in another series is Butyrylcholinesterase (Equus caballus, UniProt Q9N1N9). Put plainly: Inhibition of equine BuChE after 120 mins by Ellman's method.
Sequence of Butyrylcholinesterase (Q9N1N9 whole entry): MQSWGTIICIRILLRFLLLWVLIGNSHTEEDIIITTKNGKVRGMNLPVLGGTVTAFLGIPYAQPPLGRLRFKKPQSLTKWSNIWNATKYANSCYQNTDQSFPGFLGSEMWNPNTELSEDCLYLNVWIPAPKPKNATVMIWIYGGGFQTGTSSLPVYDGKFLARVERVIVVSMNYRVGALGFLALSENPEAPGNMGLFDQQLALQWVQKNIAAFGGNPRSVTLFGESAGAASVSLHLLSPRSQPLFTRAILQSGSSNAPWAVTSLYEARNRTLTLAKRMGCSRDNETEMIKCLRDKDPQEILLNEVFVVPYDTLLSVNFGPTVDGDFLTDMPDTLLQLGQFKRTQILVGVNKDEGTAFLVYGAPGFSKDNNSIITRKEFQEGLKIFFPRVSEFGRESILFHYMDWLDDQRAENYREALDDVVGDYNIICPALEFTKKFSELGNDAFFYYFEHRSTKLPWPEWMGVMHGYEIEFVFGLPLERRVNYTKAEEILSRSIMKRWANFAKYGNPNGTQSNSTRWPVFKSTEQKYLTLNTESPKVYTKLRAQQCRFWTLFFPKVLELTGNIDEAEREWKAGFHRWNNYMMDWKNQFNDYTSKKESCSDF
Another series has as its target T1, Acetylcholinesterase (Bos taurus, UniProt P23795).
T1 sequence (P23795 whole entry): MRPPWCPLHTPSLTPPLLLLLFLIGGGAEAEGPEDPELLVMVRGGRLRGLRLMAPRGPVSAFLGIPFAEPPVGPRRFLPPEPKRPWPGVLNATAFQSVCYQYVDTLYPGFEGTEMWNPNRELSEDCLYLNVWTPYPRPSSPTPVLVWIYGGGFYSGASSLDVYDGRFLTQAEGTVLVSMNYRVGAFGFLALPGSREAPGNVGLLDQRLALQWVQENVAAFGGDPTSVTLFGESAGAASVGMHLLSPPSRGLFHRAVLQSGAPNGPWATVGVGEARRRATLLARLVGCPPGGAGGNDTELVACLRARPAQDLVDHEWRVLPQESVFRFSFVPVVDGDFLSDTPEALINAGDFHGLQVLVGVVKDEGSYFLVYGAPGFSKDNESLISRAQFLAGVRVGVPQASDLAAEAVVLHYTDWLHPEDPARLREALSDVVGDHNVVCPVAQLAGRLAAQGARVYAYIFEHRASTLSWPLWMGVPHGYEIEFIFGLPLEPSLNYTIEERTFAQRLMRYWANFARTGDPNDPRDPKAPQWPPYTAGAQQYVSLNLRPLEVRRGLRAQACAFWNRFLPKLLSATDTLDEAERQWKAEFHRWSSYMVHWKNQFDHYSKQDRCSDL
The series can be described thus: Inhibition of bovine AChE after 120 mins by Ellman's method.

The nature of series [5]: Antioxidant activity of the compound assessed as DHR radical scavenging activity at 10 uM by fluorescence assay. In kind it is functional.
The nature of series [6]: Antioxidant activity assessed as scavenging of morpholino sydononimine based nitric oxide release by chemiluminescence assay. Format: functional.
Series [7] deals with H9c2. Put plainly: Prevention of apoptosis in rat H9c2 cells assessed as reduction in fall of mitochondrial membrane potential at 100 nM after 1 hr. Further details: scale not given: the % may be the effect or the level left. Format: functional.
Series [8] has as its system Radical scavenging activity. Put plainly: Antioxidant activity of the compound assessed as DPPH radical scavenging at 10 uM after 30 secs by spectrophotometry. Format: functional.

The structures appear in SMILES notation. The source made the active and inactive calls. The calls are words filed in the database; no cut-off is given here.

As for `CCN(C)C(=O)Oc1cccc2c1C(CCC(=O)OC)CN2C` (stereo unspecified), the result in the series with H9c2 [1] was inactive. Besides, the viability in series [2] was 97.3%. The IC50 in series [3] was 3.13 µM; against Butyrylcholinesterase, 6.8 µM; at Acetylcholinesterase, 58.7 µM. For the same compound, in [4], the Ratio IC50 was 0.11.

With `COC(=O)CCC1CN(C)c2cccc(O)c21` (stereo unspecified), in series [5], the Activity worked out at 15.4%. Also, the IC50 in [3] was determined as 0.45 µM.

Take `CCN(C)C(=O)Oc1ccc2c(c1)NCC2CCC(=O)O.Cl` (stereo unspecified): the Activity with H9c2 [1] was found to be 56.1%. In series [2], the viability came out at 102%. Besides, the IC50 turned out to be 1.14 µM in series [3], 10 µM on Butyrylcholinesterase and 175 µM against Acetylcholinesterase. Further, the Ratio IC50 in series [4] is 0.06.

With `CCN(C)C(=O)Oc1cccc2c1C(CCC(=O)OC)CN2.Cl` (stereo unspecified), the Activity with H9c2 [1] is listed as 73%. Besides, the viability in [2] was 99.9%. Moreover, the IC50 in [6] was 4.55 µM; in series [3], 1.46 µM; against Butyrylcholinesterase, 0.3 µM; against Acetylcholinesterase, 7.4 µM.

Regarding `COc1ccc(N(C)C(=O)Oc2cccc3c2C(CCC(=O)O)CN3C)cc1` (stereo unspecified), the outcome in the series on H9c2 [1] was inactive. Besides, the viability in series [2] worked out at 101%. Further, the IC50 in series [3] was 10.2 µM; against Butyrylcholinesterase it was over 600 µM; at Acetylcholinesterase, 125 µM. Also, in series [4], the Ratio IC50 was over 4.8.

As for `COC(=O)CCC1CN(C)c2cccc(OC(=O)N(C)c3ccc(OC)cc3)c21` (stereo unspecified), the result in the series with H9c2 [1] was inactive. The viability in [2] was 107%. Moreover, the values for the IC50 (in series [3]; against Butyrylcholinesterase; against Acetylcholinesterase) were 15.3 µM, over 600 µM and 246 µM, respectively. Further, the Ratio IC50 in series [4] is over 2.4.

Turning to `CCCCN(C)C(=O)Oc1ccc2c(CCC(=O)OC)c[nH]c2c1`, the Activity in the series with H9c2 [1] is recorded as 28.8%; in the series on H9c2 [7], 56%.

Consider `COC(=O)CCC1CNc2cccc(OC(=O)N(C)c3ccc(OC)cc3)c21.Cl` (stereo unspecified), for which the Activity with H9c2 [1] is 43.1%; in series [8], 30.4%. Further, the viability in series [2] stood at 84.7%. The concentration for half-maximal inhibition (IC50) in [6] was found to be 3.18 µM; in [3], 19 µM; against Butyrylcholinesterase, 4.6 µM; on Acetylcholinesterase, 1.2 µM. The Ratio IC50 in series [4] worked out at 3.8.

As to `CCN(C)C(=O)Oc1cccc2c1NCC2CCC(=O)OC` (stereo unspecified), the Ratio IC50 in series [4] came to 0.00012. Moreover, the IC50 against Butyrylcholinesterase came out at 0.008 µM; against Acetylcholinesterase, 61.6 µM.

On Acetylcholinesterase, `CCN(C)C(=O)Oc1cccc([C@H](C)N(C)C)c1` [RIVASTIGMINE] displayed an IC50 of 0.62 µM.

For `COc1ccc(N(C)C(=O)Oc2cccc3c2C(CCC(=O)O)CN3)cc1` (stereo unspecified), the outcome with H9c2 [1] was inactive. Further, the viability in series [2] stood at 95.5%. Besides, the IC50 in [3] is 4.33 µM; against Butyrylcholinesterase it was 417 µM; against Acetylcholinesterase, 37.8 µM. Besides, the Ratio IC50 in series [4] was 11.

Compound `CCN(C)C(=O)Oc1cccc2c1c(CCC(=O)OC)cn2C` gave an IC50 against Acetylcholinesterase of 180 µM.

As to `CCN(C)C(=O)Oc1ccc2c(c1)NCC2CCC(=O)OC` (stereo unspecified), the Activity in series [8] turned out to be 31.7%. Besides, the Ratio IC50 in series [4] came out at 0.07.

As for `CCCCN(C)C(=O)Oc1ccc2c(c1)N(C)CC2CCC(=O)OC` (stereo unspecified), the IC50 turned out to be 6.27 µM in [3], 66.8 µM against Butyrylcholinesterase and 122 µM against Acetylcholinesterase. The Ratio IC50 in series [4] turned out to be 0.55.

Regarding `COC(=O)CCC1CNc2cc(OC(=O)N(C)c3ccc(OC)cc3)ccc21.Cl` (stereo unspecified), the Activity in the series with H9c2 [1] came to 43.8%. Besides, the results for the IC50 (in series [3]; against Butyrylcholinesterase) were 3.41 µM and 54 µM, respectively. The Ratio IC50 in series [4] came to 1.4.

In the case of `CCN(C)C(=O)Oc1ccc2c(c1)N(CCC(=O)OC)CC2`, the IC50 in series [6] was 2.18 µM; in series [3], 0.22 µM; on Butyrylcholinesterase, 6.8 µM.

Turning to `CCN(C)C(=O)Oc1cccc2c1CCN2CCC(=O)OC`, in series [8], the Activity is 27.8%. The results for the IC50 (in series [6]; in series [3]; at Butyrylcholinesterase) were 8.49 µM, 0.3 µM and 0.7 µM, respectively.

Consider `COC(=O)CCc1c[nH]c2cc(OC(=O)N(C)c3ccc(OC)cc3)ccc12`, for which the Activity turned out to be 43.1% with H9c2 [1] and 48.2% with H9c2 [7]. Moreover, the IC50 against Acetylcholinesterase was over 600 µM.

On to `CCN(C)C(=O)Oc1cccc2[nH]cc(CCC(=O)OC)c12`, for which the Ratio IC50 in series [4] was 0.48. For the same compound, the IC50 against Butyrylcholinesterase worked out at 9.5 µM; at Acetylcholinesterase, 19.6 µM.

Regarding `CCN(C)C(=O)Oc1ccc2c(c1)N(C)CC2`, the results for the IC50 (in series [3]; against Butyrylcholinesterase; at Acetylcholinesterase) were 1.15 µM, 58.7 µM and 418 µM, respectively. For the same compound, the Ratio IC50 in [4] is 0.14.

Consider `O=C(O)CCC1CNc2cc(O)ccc21` (stereo unspecified), for which, in the series on H9c2 [1], the result was inactive. In addition, the Activity in series [5] was 41.9%. Moreover, the IC50 in series [6] was found to be 1.34 µM; in series [3] it was 2.34 µM.

Take `C#CCN[C@@H]1CCc2ccc(OC(=O)N(C)CC)cc21` [LADOSTIGIL]: the Activity in the series on H9c2 [1] stood at 58.5%; with H9c2 [7] it was 32%. For the same compound, the Ratio IC50 in series [4] is 0.06. The IC50 was determined as 0.48 µM against Butyrylcholinesterase and 30.3 µM at Acetylcholinesterase.

Consider `CCCCN(C)C(=O)Oc1cccc2c1C(CCC(=O)OC)CN2C.Cl` (stereo unspecified), for which the Activity in the series with H9c2 [1] was determined as 31.5%. Further, the viability in [2] was 93.9%. The IC50 in series [3] stood at 6.84 µM; against Butyrylcholinesterase, 197 µM. Besides, the Ratio IC50 in [4] worked out at 2.89.

For the compound `CCN(C)C(=O)Oc1cccc2c1C(CCC(=O)O)CN2` (stereo unspecified), in the series on H9c2 [1], the outcome was inactive. Further, the viability in series [2] came out at 93.4%. For the same compound, the IC50 in [3] is 1.59 µM; on Butyrylcholinesterase it was 0.3 µM; against Acetylcholinesterase, 19 µM. In addition, in series [4], the Ratio IC50 was 0.016.

For `O=C(O)c1cc(O)c(O)c(O)c1`, the Activity in [8] was 31.4%.

Regarding `COC(=O)CCC1CN(C)c2cc(OC(=O)N(C)c3ccc(OC)cc3)ccc21.Cl` (stereo unspecified), the Activity in the series with H9c2 [1] was found to be 33.3%. Also, in [2], the viability was determined as 106%. The values for the IC50 (in series [3]; against Butyrylcholinesterase; against Acetylcholinesterase) were 2.24 µM, 372 µM and 17.4 µM, respectively.

As for `CC(=O)N[C@@H](CS)C(=O)O` [ACETYLCYSTEINE], the figures for the Activity in the series on H9c2 [1] and with H9c2 [7] were 25.2% and 20%, respectively.

Turning to `CN(C)C(=O)Oc1cccc2c1CCN2.Cl`, the Activity with H9c2 [1] is 46.8%. For the same compound, the IC50 in series [3] turned out to be 0.77 µM; against Butyrylcholinesterase it was 1.3 µM; at Acetylcholinesterase, 1.2 µM. Moreover, in series [4], the Ratio IC50 came to 1.08.

On to `O=C(O)CCC1CNc2cccc(O)c21` (stereo unspecified), for which the Activity in [5] stood at 19.1%. Moreover, in series [3], the IC50 worked out at 1.44 µM.

With `CCOC(=O)CCC1CNc2cccc(OC(=O)N(C)CC)c21` (stereo unspecified), the figures for the IC50 at Butyrylcholinesterase and on Acetylcholinesterase were 0.56 µM and 40.2 µM, respectively.

With `CN1CC(CCC(=O)O)c2ccc(O)cc21` (stereo unspecified), the Activity in series [5] turned out to be 66.3%. For the same compound, the IC50 in series [6] is 3.25 µM; in series [3], 0.84 µM.

As for `CCN(C)C(=O)Oc1cccc2c1C(CCC(N)=O)CN2.Cl` (stereo unspecified), the Activity with H9c2 [1] turned out to be 55.2%. Also, the viability in [2] was found to be 96%. In addition, the figures for the IC50 (in series [3]; against Butyrylcholinesterase; against Acetylcholinesterase) were 2.39 µM, 8.5 µM and 62 µM, respectively. Moreover, the Ratio IC50 in series [4] is 0.14.

Consider `O=c1c(O)c(-c2ccc(O)c(O)c2)oc2cc(O)cc(O)c12` [QUERCETIN], for which the Activity came to 45.1% with H9c2 [1], 33.6% in series [5] and 19.2% in series [8]. The results for the IC50 in series [6] and in series [3] were 0.61 µM and 0.06 µM, respectively.

As for `CCN(C)C(=O)Oc1cccc2c1C(CCN)CN2` (stereo unspecified), in [8], the Activity turned out to be 36.3%. Further, the IC50 was 2.13 µM in series [6], 0.07 µM in [3] and 0.2 µM at Butyrylcholinesterase. In addition, the Ratio IC50 in series [4] is 0.5.
